Key:
Test in all cases: Synergistic antimicrobial activity as MIC, 96-well microplate, optical density at 620 nm
Format in all cases: cell-based
[1] = tested on: Aspergillus niger ATCC 6275; settings: for % MIC of A alone: Aspergillus niger, growth <= 25%
Text: (§1) FIC Index=(MIC of A with B/MIC of A)+(MIC of B with A/MIC of B [Math. 1]
(§2) with: • MIC of A with B: minimum concentration of product A in the combination A+B which makes it possible to obtain an inhibitory effect; • MIC of B with A: minimum concentration of product B in the combination A+B which makes it possible to obtain an inhibitory effect; • MIC of A: minimum inhibitory concentration of product A alone; • MIC of B: minimum inhibitory concentration of product B alone. This formula was described for the first time in the article by F. C. Kull, P. C. Eisman, H. D. Sylwestrowka, and R. L. Mayer, Applied Microbiology 9:538-541, 1961.
The microbial strain Aspergillus niger ATCC 6275, and a double-concentration Sabouraud broth liquid culture medium supplemented with polyoxyethylenated (20 OE) sorbitan monopalmitate (Tween 40 from Croda) and Phytagel© BioReagent were used (i.e. a mixture of 5 g of Phytagel+0.6 g of Tween 40+60 g of Sabouraud broth).
(§3) A 96-well microplate at an incubation temperature of 32.5° C. is used.
(§4) The incubation time of the microplate is: • from 24 to 30 h under aerobic conditions for microbial Aspergillus niger ATCC 6275; • from 18 to 24 h under aerobic conditions for Candida albicans ATCC 10231, Pseudomonas aeruginosa ATCC 9027 and Staphylococcus aureus ATCC 6538; • from 24 to 48 h under aerobic conditions for Enterococcus faecalis ATCC 33186.
(§5) For each compound: A=4-(3-ethoxy-4-hydroxyphenyl) butan-2-one compound B=alcohol compound A 10% (weight/volume) stock solution was prepared by mixing 1 g of compound in 9 ml of aqueous 1% agar solution. Successive dilutions were made with the 1% agar solution.
(§6) 50 μl of each of the daughter solutions obtained containing compound A or B are added to the microplate wells. 100 μl of Sabouraud liquid nutrient broth inoculated at double concentration with the Aspergillus niger strain and 50 μl of aqueous 1% agar solution are also added thereto.
(§7) 50 μl of each of the daughter solutions obtained containing compound A and 50 μl of each of the daughter solutions obtained containing compound B are added to the microplate wells. 100 μl of Sabouraud liquid nutrient broth inoculated at double concentration with the strain Aspergillus niger are also added thereto.
(§8) A positive microbial growth control was also prepared. The positive microbial growth control corresponds to a mixture of 100 μl of aqueous 1% agar solution with 100 μl of Sabouraud liquid nutrient broth inoculated at double concentration with the strain Aspergillus niger in the absence of compounds A and B.
(§9) An absorbance control was performed in parallel on compounds A and B alone. This control corresponds to 100 μl of double concentration sterile Sabouraud liquid nutrient broth+100 μl of double concentration compound A or B.
(§10) In the three cases (absorbance control, growth control and test), the final volume present in each of the microplate wells is 200 μl.
In the two cases (test and control), the inoculum represents the concentration of the Aspergillus niger strain present in the final volume of the wells (200 μl) and is between 2 and 6×10^5 cfu/ml of Aspergillus niger.

[2] = tested on: Staphylococcus aureus ATCC 6538; settings: for % MIC of A alone: Staphylococcus aureus, growth <= 25%
Text: as §1, §2
The microbial strain Staphylococcus aureus ATCC 6538 and a double-concentration nutrient broth liquid culture medium were used.
as §3, §4, §5, §6, §7, §8, §9, §10
(§11) The test as described above (tests, absorbance control and growth control) was performed again to test the combination A+B on the following strains Enterococcus faecalis, Staphylococcus aureus, Pseudomonas aeruginosa, Candida albicans, where appropriate.

[3] = tested on: Enterococcus faecalis ATCC 33186; settings: for % MIC of A alone: Enterococcus faecalis, growth <= 25%
Text: as §1, §2
The microbial strain Enterococcus faecalis ATCC 33186 and a double-concentration BHI (Brain Heart Infusion) broth liquid culture medium were used.
as §3, §4, §5, §6, §7, §8, §9, §10, §11

SMILES: CCOc1cc(CCC(C)=O)ccc1O [A, 4-(3-ethoxy-4-hydroxyphenyl)butan-2-one]
- microbial growth percentage ([1]; 0.025 A, 0 B1 weight %): 82%
- microbial growth percentage ([1]; 0.025 A, 0 B3 weight %): 45%
- microbial growth percentage ([1]; 0.025 A, 0 B5 weight %): 55%
- microbial growth percentage ([1]; 0.05 A, 0 B1 weight %): 43%
- microbial growth percentage ([1]; 0.05 A, 0 B3 weight %): 35%
- microbial growth percentage ([1]; 0.05 A, 0 B5 weight %): 32%
- microbial growth percentage ([1]; 0.1 A, 0 B1 weight %): 5%
- microbial growth percentage ([1]; 0.1 A, 0 B3 weight %): 14%
- microbial growth percentage ([1]; 0.1 A, 0 B5 weight %): 16%
- % MIC of A alone ([1]; Example 1): 0.1%
- % MIC of A alone ([1]; Example 3): 0.1%
- % MIC of A alone ([1]; Example 5): 0.1%
- microbial growth percentage ([2]; 0.0625 A, 0 B2 weight %): 52%
- microbial growth percentage ([2]; 0.0625 A, 0 B6 weight %): 65%
- microbial growth percentage ([2]; 0.125 A, 0 B2 weight %): 49%
- microbial growth percentage ([2]; 0.125 A, 0 B6 weight %): 75%
- microbial growth percentage ([2]; 0.25 A, 0 B2 weight %): 52%
- microbial growth percentage ([2]; 0.25 A, 0 B6 weight %): 79%
- microbial growth percentage ([2]; 0.5 A, 0 B2 weight %): 75%
- microbial growth percentage ([2]; 0.5 A, 0 B6 weight %): 24%
- microbial growth percentage ([2]; 1 A, 0 B2 weight %): 2%
- microbial growth percentage ([2]; 1 A, 0 B6 weight %): 5%
- % MIC of A alone ([2]; Example 2): 1%
- % MIC of A alone ([2]; Example 6): 1%
- microbial growth percentage ([3]; 0.0625 A, 0 B3 weight %): 70%
- microbial growth percentage ([3]; 0.0625 A, 0 B4 weight %): 44%
- microbial growth percentage ([3]; 0.0625 A, 0 B6 weight %): 35%
- microbial growth percentage ([3]; 0.125 A, 0 B3 weight %): 31%
- microbial growth percentage ([3]; 0.125 A, 0 B4 weight %): 39%
- microbial growth percentage ([3]; 0.125 A, 0 B6 weight %): 43%
- microbial growth percentage ([3]; 0.25 A, 0 B3 weight %): 27%
- microbial growth percentage ([3]; 0.25 A, 0 B4 weight %): 38%
- microbial growth percentage ([3]; 0.25 A, 0 B6 weight %): 34%
- microbial growth percentage ([3]; 0.5 A, 0 B3 weight %): 14%
- microbial growth percentage ([3]; 0.5 A, 0 B4 weight %): 12%
- microbial growth percentage ([3]; 0.5 A, 0 B6 weight %): 0%
- % MIC of A alone ([3]; Example 3): 0.5%
- % MIC of A alone ([3]; Example 4): 0.5%
- % MIC of A alone ([3]; Example 6): 0.5%

From patent US20220174947A1, “ANTIMICROBIAL MIXTURE CONTAINING 4-(3-ETHOXY-4-HYDROXYPHENYL)BUTAN-2-ONE AND AN ALCOHOL COMPOUND, AND COSMETIC COMPOSITION CONTAINING SAME” (L'OREAL, priority 2018, published 2022)
